8 compounds from ChEMBL document CHEMBL2034935, “Discovery of a Novel Series of CRTH2 (DP2) Receptor Antagonists Devoid of Carboxylic Acids” (ACS Med Chem Lett, 2011) can be followed below.

Data set [1] concerns the target T1, Prostaglandin D2 receptor 2 (Homo sapiens, UniProt Q9Y5Y4).
T1 sequence (Q9Y5Y4 whole entry): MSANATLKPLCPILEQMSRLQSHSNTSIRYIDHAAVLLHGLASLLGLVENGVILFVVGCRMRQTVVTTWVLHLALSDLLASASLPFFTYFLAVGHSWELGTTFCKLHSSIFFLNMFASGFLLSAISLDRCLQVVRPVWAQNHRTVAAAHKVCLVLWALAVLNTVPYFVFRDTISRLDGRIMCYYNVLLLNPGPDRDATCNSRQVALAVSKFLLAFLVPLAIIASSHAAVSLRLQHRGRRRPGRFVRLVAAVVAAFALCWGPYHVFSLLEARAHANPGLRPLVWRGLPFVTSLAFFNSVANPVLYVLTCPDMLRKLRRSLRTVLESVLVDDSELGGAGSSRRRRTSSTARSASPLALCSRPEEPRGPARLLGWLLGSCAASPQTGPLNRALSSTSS
The data set can be described thus: Displacement of [3HPGD2 from human CRTH2 receptor expressed in CHO cell membrane after 90 mins by scintillation proximity assay. In kind it is cell membranes. In general terms: Scintillation proximity formats need no separation of bound from free tracer.

In data set [2] the target is Cytochrome P450 2D6 (Homo sapiens, UniProt P10635). Description: Inhibition of human recombinant CYP2D6 incubated for 15 mins prior to substrate addition measured after 30 mins by spectrophotometry. It is filed as ADME.
For data set [3], the target named is T2, Cytochrome P450 2B6 (Homo sapiens, UniProt P20813).
T2 sequence (P20813 whole entry): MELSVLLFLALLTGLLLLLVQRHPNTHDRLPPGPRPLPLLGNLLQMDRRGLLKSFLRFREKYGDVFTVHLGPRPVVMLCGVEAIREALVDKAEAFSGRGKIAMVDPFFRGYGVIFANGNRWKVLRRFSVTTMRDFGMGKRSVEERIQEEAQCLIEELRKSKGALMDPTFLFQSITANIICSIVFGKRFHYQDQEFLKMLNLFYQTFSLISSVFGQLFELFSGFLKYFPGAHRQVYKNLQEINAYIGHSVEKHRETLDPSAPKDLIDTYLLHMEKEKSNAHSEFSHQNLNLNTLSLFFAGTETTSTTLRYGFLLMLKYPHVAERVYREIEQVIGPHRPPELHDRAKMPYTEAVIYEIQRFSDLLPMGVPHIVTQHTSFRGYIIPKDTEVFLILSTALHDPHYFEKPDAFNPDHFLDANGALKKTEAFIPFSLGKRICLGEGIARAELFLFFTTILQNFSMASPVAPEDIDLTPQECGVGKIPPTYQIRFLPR
Description: Inhibition of human recombinant CYP2B6 incubated for 15 mins prior to substrate addition measured after 30 mins by spectrophotometry. It is filed as ADME.

Data set [4] deals with T3, Cytochrome P450 1A2 (Homo sapiens, UniProt P05177).
T3 sequence (P05177 whole entry): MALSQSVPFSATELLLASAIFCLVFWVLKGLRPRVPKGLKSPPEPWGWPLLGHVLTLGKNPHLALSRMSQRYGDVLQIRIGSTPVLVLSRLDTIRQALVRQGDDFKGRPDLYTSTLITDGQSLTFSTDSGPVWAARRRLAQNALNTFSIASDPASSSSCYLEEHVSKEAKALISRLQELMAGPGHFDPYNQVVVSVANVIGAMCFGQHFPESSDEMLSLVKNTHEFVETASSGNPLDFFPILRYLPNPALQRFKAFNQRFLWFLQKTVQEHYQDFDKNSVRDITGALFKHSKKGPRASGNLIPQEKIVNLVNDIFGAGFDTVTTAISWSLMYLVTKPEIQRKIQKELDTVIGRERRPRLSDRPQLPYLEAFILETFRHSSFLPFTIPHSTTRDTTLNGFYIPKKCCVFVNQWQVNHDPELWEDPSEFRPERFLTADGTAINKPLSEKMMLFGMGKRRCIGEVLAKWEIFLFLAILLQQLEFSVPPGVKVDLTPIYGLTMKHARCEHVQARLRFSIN
The data set can be described thus: Inhibition of human recombinant CYP1A2 incubated for 15 mins prior to substrate addition measured after 30 mins by spectrophotometry. It is filed as ADME.

Data set [5] concerns the target Cytochrome P450 3A4 (Homo sapiens, UniProt P08684). Description: Inhibition of human recombinant CYP3A4 incubated for 15 mins prior to substrate addition measured after 30 mins by spectrophotometry. In kind it is ADME.
Data set [6] is described as follows: Volume of distribution at steady state in C57BL/6 mouse at 1 mg/kg, iv and 5 mg/kg, po. It is filed as ADME, organism-based. The following applies: in vivo, read-out: Vdss.
Data set [7] concerns the target Cytochrome P450 2C9 (Homo sapiens, UniProt P11712). Description: Inhibition of human recombinant CYP2C9 incubated for 15 mins prior to substrate addition measured after 30 mins by spectrophotometry. It is filed as ADME.
For data set [8], the target named is Cytochrome P450 2C19 (Homo sapiens, UniProt P33261). Description: Inhibition of human recombinant CYP2C19 incubated for 15 mins prior to substrate addition measured after 30 mins by spectrophotometry. In kind it is ADME.
Data set [9] is described as follows: Apparent permeability across human Caco2 cells at 1 uM after 2 hrs by LC/MS analysis. The following applies: Caco-2. It is filed as ADME, cell-based. On the technique in general: Caco-2 cells form a polarised layer with tight junctions and transporters.
The target of data set [10] is T1, Prostaglandin D2 receptor 2. Description: Antagonist activity at human CRTH2 receptor expressed in CHO cell membrane assessed as inhibition of PGD2-induced [35S]GTPgammaS binding after 30 mins by microbeta scintillation counting. In kind it is functional, cell membranes. On the technique in general: Binding of GTPγS marks nucleotide exchange on a G protein.
Data set [11] addresses T4, Prostaglandin D2 receptor 2 (Homo sapiens) (UniProt Q9Y5Y4).
T4 sequence (whole entry): T1 sequence (Q9Y5Y4 whole entry)
Description: Antagonist activity at human CRTH2 receptor expressed in CHO cell membrane assessed as inhibition of PGD2-induced [35S]GTPgammaS binding at 2 uM after 30 mins by microbeta scintillation counting relative to control. In kind it is functional, cell membranes.

The target in data set [12] is T4, Prostaglandin D2 receptor 2 (Homo sapiens). The data set can be described thus: Agonist activity at human CRTH2 receptor expressed in CHO cell membrane assessed as induction of [35S]GTPgammaS binding at 20 uM after 30 mins by microbeta scintillation counting relative to PGD2. In kind it is functional, cell membranes.
Data set [13] addresses T5, Cytochrome P450 2C8 (Homo sapiens, UniProt P10632).
T5 sequence (P10632 whole entry): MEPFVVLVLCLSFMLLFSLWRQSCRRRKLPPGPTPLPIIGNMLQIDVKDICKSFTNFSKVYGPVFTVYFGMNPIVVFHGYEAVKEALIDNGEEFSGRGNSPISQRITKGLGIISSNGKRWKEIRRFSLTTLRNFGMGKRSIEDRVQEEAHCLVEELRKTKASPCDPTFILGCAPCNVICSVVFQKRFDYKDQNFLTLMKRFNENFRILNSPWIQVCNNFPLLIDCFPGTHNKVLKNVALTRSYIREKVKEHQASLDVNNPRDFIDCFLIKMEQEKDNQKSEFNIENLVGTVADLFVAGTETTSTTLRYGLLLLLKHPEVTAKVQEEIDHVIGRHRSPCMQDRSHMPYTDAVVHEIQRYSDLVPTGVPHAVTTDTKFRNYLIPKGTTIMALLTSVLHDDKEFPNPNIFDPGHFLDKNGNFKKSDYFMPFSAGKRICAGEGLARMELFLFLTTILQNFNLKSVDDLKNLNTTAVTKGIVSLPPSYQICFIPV
The data set can be described thus: Inhibition of human recombinant CYP2C8 incubated for 15 mins prior to substrate addition measured after 30 mins by spectrophotometry. In kind it is ADME.

Data set [14] can be described thus: Half life in C57BL/6 mouse at 1 mg/kg, iv. Details: dose 1 mg/kg, route intravenous. The following applies: in vivo. In kind it is ADME, organism-based.
Data set [15] in a line: Intrinsic clearance in rat liver microsomes assessed per mg protein at 1 uM up to 45 mins by LC/MS analysis. It is filed as ADME, Microsome. The following applies: read-out: CLH.
Data set [16] in a line: Intrinsic clearance in human liver microsomes assessed per mg protein at 1 uM up to 45 mins by LC/MS analysis. It is filed as ADME, Microsome. The note with it: read-out: CLH.

Sequence of Cytochrome P450 2D6 (P10635 whole entry): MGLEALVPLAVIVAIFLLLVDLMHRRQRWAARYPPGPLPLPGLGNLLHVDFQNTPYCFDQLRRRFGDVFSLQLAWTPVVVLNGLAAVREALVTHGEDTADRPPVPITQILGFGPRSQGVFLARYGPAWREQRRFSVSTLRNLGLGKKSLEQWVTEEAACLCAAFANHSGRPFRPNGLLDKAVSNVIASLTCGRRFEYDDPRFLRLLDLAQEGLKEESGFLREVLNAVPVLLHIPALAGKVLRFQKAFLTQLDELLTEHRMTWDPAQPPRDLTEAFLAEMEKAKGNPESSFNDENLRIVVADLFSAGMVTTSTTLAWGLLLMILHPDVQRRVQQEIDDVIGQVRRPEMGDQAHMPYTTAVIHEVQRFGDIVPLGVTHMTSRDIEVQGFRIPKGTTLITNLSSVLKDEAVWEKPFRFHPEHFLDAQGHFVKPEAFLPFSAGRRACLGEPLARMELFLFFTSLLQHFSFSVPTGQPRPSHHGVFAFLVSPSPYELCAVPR
Sequence of Cytochrome P450 3A4 (P08684 whole entry): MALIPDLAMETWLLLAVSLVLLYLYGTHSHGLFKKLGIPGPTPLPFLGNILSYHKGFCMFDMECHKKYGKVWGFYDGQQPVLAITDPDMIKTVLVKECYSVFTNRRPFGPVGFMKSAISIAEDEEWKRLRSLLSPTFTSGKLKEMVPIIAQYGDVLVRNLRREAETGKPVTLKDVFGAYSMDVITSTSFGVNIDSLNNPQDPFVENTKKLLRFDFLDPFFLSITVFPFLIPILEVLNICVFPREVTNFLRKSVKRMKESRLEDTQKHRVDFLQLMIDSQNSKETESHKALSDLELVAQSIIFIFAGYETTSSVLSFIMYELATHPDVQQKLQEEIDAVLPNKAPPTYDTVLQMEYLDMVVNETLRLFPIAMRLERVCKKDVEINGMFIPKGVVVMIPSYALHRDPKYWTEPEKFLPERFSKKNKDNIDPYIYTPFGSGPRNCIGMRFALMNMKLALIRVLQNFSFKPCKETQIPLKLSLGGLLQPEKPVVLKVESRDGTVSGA
Sequence of Cytochrome P450 2C19 (P33261 whole entry): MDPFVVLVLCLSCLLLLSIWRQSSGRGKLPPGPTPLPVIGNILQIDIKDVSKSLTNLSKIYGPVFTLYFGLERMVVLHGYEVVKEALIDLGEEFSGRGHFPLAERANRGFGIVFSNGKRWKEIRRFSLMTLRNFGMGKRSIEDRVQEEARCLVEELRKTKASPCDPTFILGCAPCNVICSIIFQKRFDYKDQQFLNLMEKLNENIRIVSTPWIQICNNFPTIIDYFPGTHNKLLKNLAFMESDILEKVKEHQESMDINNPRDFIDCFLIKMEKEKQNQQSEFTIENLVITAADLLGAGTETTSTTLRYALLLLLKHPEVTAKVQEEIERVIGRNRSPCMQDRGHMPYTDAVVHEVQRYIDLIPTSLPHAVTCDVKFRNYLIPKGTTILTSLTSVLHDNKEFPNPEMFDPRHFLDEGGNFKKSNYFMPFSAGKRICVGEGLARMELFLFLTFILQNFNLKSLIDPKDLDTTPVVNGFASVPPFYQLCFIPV
Sequence of Cytochrome P450 2C9 (P11712 whole entry): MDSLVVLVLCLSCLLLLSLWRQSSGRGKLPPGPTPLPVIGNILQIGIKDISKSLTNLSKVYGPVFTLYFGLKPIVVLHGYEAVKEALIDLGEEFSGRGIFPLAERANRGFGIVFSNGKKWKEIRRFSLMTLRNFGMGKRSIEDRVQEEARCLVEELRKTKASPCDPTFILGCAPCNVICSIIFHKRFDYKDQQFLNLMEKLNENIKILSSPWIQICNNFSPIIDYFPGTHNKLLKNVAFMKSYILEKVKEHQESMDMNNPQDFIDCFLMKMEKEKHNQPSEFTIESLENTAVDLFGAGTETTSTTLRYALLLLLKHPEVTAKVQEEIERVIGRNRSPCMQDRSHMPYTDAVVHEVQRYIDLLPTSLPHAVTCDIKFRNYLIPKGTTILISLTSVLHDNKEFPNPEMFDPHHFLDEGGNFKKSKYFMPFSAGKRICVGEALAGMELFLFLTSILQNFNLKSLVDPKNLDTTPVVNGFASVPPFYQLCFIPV

By Ki is commonly meant a measure of affinity in units of concentration, obtained from inhibition or displacement. Read a low Ki as tighter binding. The IC50 is the concentration at which inhibition is half-maximal. In the case of `CCCCC(=O)N(Cc1ccc(C(F)(F)F)cc1)c1cc(F)cc(-c2nnn[nH]2)c1`, the affinity in data set [1], expressed as Ki, was 2.4 nM. Also, the IC50 in data set [2], in data set [3], in [4] and in data set [5] was more than 10 µM each time.
As usually defined, the Papp is a coefficient for how fast a substance crosses the barrier. The inhibition is the drop in the measured response relative to a control, in per cent. As usually defined, the Emax is the maximal effect, on the per cent scale that the assay sets. As usually defined, the half-life is how long it takes for the measured level to halve. For the compound `CCC(=O)N(Cc1ccc(C(F)(F)F)cc1)c1cc(F)cc(-c2nnn[nH]2)c1`, the Vd in data set [6] came to 0.9 L/kg. The IC50 is 280 nM in data set [7]; more than 10 µM in data set [2]; 38 nM in data set [8]; more than 10 µM in [3]; more than 10 µM in data set [4]; 37 nM in data set [10]. Also, the IC50 in [5] is more than 10 µM; in data set [13], 86 nM. For the same compound, in data set [1], the Ki turned out to be 5.7 nM. Further, the apparent permeability coefficient (Papp) at 2 h, 1 µM in data set [9] was 3 ×10⁻⁶ cm/s. The inhibition in [11] amounted to 105%. In addition, the Emax in data set [12] is -8%. Further, the half-life in [14] is 84 min. Also, the microsomal CLint at 1 µM in data set [15] and in [16] was less than 10 µL/min/mg throughout.
The compound `CCCCC(=O)N(Cc1cccc(OC(F)(F)F)c1)c1cc(F)cc(-c2nnn[nH]2)c1` had a Ki in [1] of 4.5 nM. In addition, the IC50 in [2], in data set [3], in data set [4] and in data set [5] was more than 10 µM each time.
In the case of `CCC(=O)N(Cc1ccc(OC(F)(F)F)cc1)c1cc(F)cc(-c2nnn[nH]2)c1`, the half-maximal inhibitory concentration (IC50) in data set [7] was 200 nM; in [2] it was more than 10 µM; in [8] it was 51 nM; in data set [3] it was more than 10 µM; in data set [4], more than 10 µM; in [5], more than 10 µM. Also, in data set [13], the IC50 was found to be 43 nM. In data set [1], this compound gave a Ki of 6.9 nM. For the same compound, the microsomal CLint at 1 µM in data set [15] is 12 µL/min/mg; in data set [16] it was less than 10 µL/min/mg.
Compound `CCCCC(=O)N(Cc1ccc(OC(F)(F)F)cc1)c1cc(Cl)cc(-c2nnn[nH]2)c1` yielded a Ki in data set [1] of 19 nM. Also, the half-inhibitory concentration (IC50) in data set [2] is more than 10 µM; in [3] it was more than 10 µM; in [4] it was more than 10 µM; in data set [10] it was 20 nM; in data set [5], more than 10 µM. Besides, in [11], the inhibition was 112%. The Emax in data set [12] is -10%.
As to `CCCCC(=O)N(Cc1ccc(OC(F)(F)F)cc1)c1cc(F)cc(-c2nnn[nH]2)c1`, the affinity in [1], expressed as Ki, was 7.7 nM. The IC50 in data set [2], in data set [3], in [4] and in [5] was more than 10 µM in each case.
In turn, `CCC(=O)N(Cc1ccc(C(F)(F)F)cc1)c1cccc(-c2nnn[nH]2)c1` gave a Ki in data set [1] of 110 nM. Moreover, the IC50 in data set [2], in data set [3], in data set [4] and in [5] was more than 10 µM in each case.
In [1], `CCC(=O)N(Cc1cccc(C(F)(F)F)c1)c1cccc(-c2nnn[nH]2)c1` registered an inhibitory constant (Ki) of 220 nM. Further, the IC50 in [2], in [3], in [4] and in data set [5] was more than 10 µM throughout.
